Measured values published in patent US20070128217A1 (priority 2003, published 2007).

Columns and labels:
[1] = tested on: antibodies in sera from SARS patients (sera 1a, 1b, 2, 6, 37, 62, London, SARS-yellow, SARS-green); assay type: binding, human; design: Binding of serum 6 to linear peptides of protein X1 of SARS-CoV Urbani / Binding of serum 37 to linear peptides of protein X1 of SARS-CoV Urbani / Binding of serum 6 to looped/cyclic peptide (PEPSCAN-ELISA) / Binding of serum 37 to looped/cyclic peptide (PEPSCAN-ELISA) / Binding of serum 37 to looped/cyclic peptides of protein X1 of SARS-CoV Urbani / Binding of serum 6 to linear peptides of protein X2 / Binding of serum 37 to linear peptides of protein X2 / Binding of serum 37 to looped/cyclic peptides of protein X2 of SARS-CoV Urbani / Binding of serum 6 to linear peptides of protein M of SARS-CoV Urbani / Binding of serum 37 to linear peptides of protein M of SARS-CoV Urbani / Binding of serum 6 to looped/cyclic peptides of protein M of SARS-CoV Urbani / Binding of serum 37 to looped/cyclic peptides of protein M of SARS-CoV Urbani / Binding of serum 6 to linear peptides of protein X3 of SARS-CoV Urbani / Binding of serum 37 to linear peptides of protein X3 of SARS-CoV Urbani / Binding of serum 37 to looped/cyclic peptides of protein X3 of SARS-CoV Urbani / Binding of serum 6 to linear peptides of protein X4 of SARS-CoV Urbani / Binding of serum 37 to linear peptides of protein X4 of SARS-CoV Urbani / Binding of serum 37 to looped/cyclic peptides of protein X4 of SARS-CoV Urbani / Binding of serum 6 to linear peptides of protein X5 of SARS-CoV Urbani / Binding of serum 37 to linear peptides of protein X5 of SARS-CoV Urbani / Binding of serum 37 to looped/cyclic peptides of protein X5 of SARS-CoV Urbani / Binding of serum 6 to linear peptides of protein N of SARS-CoV Urbani / Binding of serum 37 to linear peptides of protein N of SARS-CoV Urbani / Binding of serum 6 to linear peptide (PEPSCAN-ELISA) / Binding of serum 1a to looped/cyclic peptides of protein N of SARS-CoV Urbani / Binding of serum 1b to looped/cyclic peptides of protein N of SARS-CoV Urbani / Binding of serum 2 to looped/cyclic peptides of protein N of SARS-CoV Urbani / Binding of serum 6 to looped/cyclic peptides of protein N of SARS-CoV Urbani / Binding of serum 37 to looped/cyclic peptides of protein N of SARS-CoV Urbani / Binding of serum 62 to looped/cyclic peptides of protein N of SARS-CoV Urbani / Binding of serum London to looped/cyclic peptides of protein N of SARS-CoV Urbani / Binding of serum SARS-green to looped/cyclic peptides of protein N of SARS-CoV Urbani: unit not given here
[2] = tested on: control sera (pooled serum of ten healthy LUMC hospital workers; commercial negative donor pooled serum from the Dutch bloodbank); assay type: binding, human; design: Binding of Control serum LUMC to linear peptides / Binding of Control serum Blood-bank to linear peptides / Binding of Control serum LUMC to looped peptides / Binding of Control Serum Blood-Bank to Looped peptides / Binding of Control serum LUMC to linear peptides of the protein M of SARS-CoV Urbani / Binding of Control serum Blood-bank to linear peptides of the protein M of SARS-CoV Urbani / Binding of Control serum LUMC to looped peptides of the protein M of SARS-CoV Urbani / Binding of Control Serum Blood-Bank to Looped peptides of the protein M of SARS-CoV Urbani: unit not given here
[3] = tested on: rabbit serum obtained by immunizing a rabbit with the SARS-CoV strain Frankfurt 1; assay type: binding; design: Binding of a rabbit serum to linear peptides / Binding of a rabbit serum to looped peptides / Rabbit serum linear peptides / Rabbit serum looped peptides / Binding of a rabbit serum to linear peptides of protein N of SARS-CoV Urbani (Rabbit serum linear peptides) / Binding of a rabbit serum to looped/cyclic peptides of protein N of SARS-CoV Urbani (Rabbit serum looped peptides): unit not given here

RSMWSFNPETNILLN
Binding of serum 1a to linear peptides of protein M of SARS-CoV Urbani [1]: 0.8
Binding of serum 1a to looped/cyclic peptides of protein M of SARS-CoV Urbani [1]: 0.8
Binding of serum 1b to linear peptides of protein M of SARS-CoV Urbani [1]: 0.6
Binding of serum 1b to looped/cyclic peptides of protein M of SARS-CoV Urbani [1]: 0.4
Binding of serum 2 to linear peptides of protein M of SARS-CoV Urbani [1]: 0.6
Binding of serum 2 to looped/cyclic peptides of protein M of SARS-CoV Urbani [1]: 0.8
Binding of serum 6 to linear peptides of protein M of SARS-CoV Urbani [1]: 0.3
Binding of serum 6 to looped/cyclic peptides of protein M of SARS-CoV Urbani [1]: 0.7
Binding of serum 37 to linear peptides of protein M of SARS-CoV Urbani [1]: 0.8
Binding of serum 37 to looped/cyclic peptides of protein M of SARS-CoV Urbani [1]: 0.8
Binding of serum 62 to linear peptides of protein M of SARS-CoV Urbani [1]: 0.7
Binding of serum 62 to looped/cyclic peptides of protein M of SARS-CoV Urbani [1]: 0.8
Binding of serum London to linear peptides of protein M of SARS-CoV Urbani [1]: 0.3
Binding of serum London to looped/cyclic peptides of protein M of SARS-CoV Urbani [1]: 0.2
Binding of serum SARS-green to linear peptides of protein M of SARS-CoV Urbani [1]: 0.2
Binding of serum SARS-green to looped/cyclic peptides of protein M of SARS-CoV Urbani [1]: 0.4
Binding of serum SARS-yellow to linear peptides of protein M of SARS-CoV Urbani [1]: 0.1
Binding of serum SARS-yellow to looped/cyclic peptides of protein M of SARS-CoV Urbani [1]: 0.7
Binding of Control Serum Blood-Bank to Looped peptides of the protein M of SARS-CoV Urbani [2]: 0.7
Binding of Control serum Blood-bank to linear peptides of the protein M of SARS-CoV Urbani [2]: 0.8
Binding of Control serum LUMC to linear peptides of the protein M of SARS-CoV Urbani [2]: 0.5
Binding of Control serum LUMC to looped peptides of the protein M of SARS-CoV Urbani [2]: 0.7
Rabbit serum linear peptides [3]: 0.4
Rabbit serum looped peptides [3]: 0.3

RSVSPKLFIRQEEVQ
Binding of serum 1a to linear peptides of protein X4 of SARS-CoV Urbani [1]: 0.7
Binding of serum 1a to looped/cyclic peptides of protein X4 of SARS-CoV Urbani [1]: 0.6
Binding of serum 1b to linear peptides of protein X4 of SARS-CoV Urbani [1]: 0.4
Binding of serum 1b to looped/cyclic peptides of protein X4 of SARS-CoV Urbani [1]: 0.5
Binding of serum 2 to linear peptides of protein X4 of SARS-CoV Urbani [1]: 0.4
Binding of serum 2 to looped/cyclic peptides of protein X4 of SARS-CoV Urbani [1]: 0.5
Binding of serum 6 to linear peptides of protein X4 of SARS-CoV Urbani [1]: 0.5
Binding of serum 6 to looped/cyclic peptides of protein X4 of SARS-CoV Urbani [1]: 0.5
Binding of serum 37 to linear peptides of protein X4 of SARS-CoV Urbani [1]: 0.6
Binding of serum 37 to looped/cyclic peptides of protein X4 of SARS-CoV Urbani [1]: 0.7
Binding of serum 62 to linear peptides of protein X4 of SARS-CoV Urbani [1]: 0.7
Binding of serum 62 to looped/cyclic peptides of protein X4 of SARS-CoV Urbani [1]: 0.6
Binding of serum London to linear peptides of protein X4 of SARS-CoV Urbani [1]: 0.6
Binding of serum London to looped/cyclic peptides of protein X4 of SARS-CoV Urbani [1]: 0.3
Binding of serum SARS-green to linear peptides of protein X4 of SARS-CoV Urbani [1]: 0.5
Binding of serum SARS-green to looped/cyclic peptides of protein X4 of SARS-CoV Urbani [1]: 0.4
Binding of serum SARS-yellow to linear peptides of protein X4 of SARS-CoV Urbani [1]: 0.2
Binding of serum SARS-yellow to looped/cyclic peptides of protein X4 of SARS-CoV Urbani [1]: 0.5
Binding of Control Serum Blood-Bank to Looped peptides [2]: 0.6
Binding of Control serum Blood-bank to linear peptides [2]: 0.5
Binding of Control serum LUMC to linear peptides [2]: 0.4
Binding of Control serum LUMC to looped peptides [2]: 0.7
Rabbit serum linear peptides [3]: 0.4
Rabbit serum looped peptides [3]: 0.4

RTRSMWSFNPETNIL
Binding of serum 1a to linear peptides of protein M of SARS-CoV Urbani [1]: 0.9
Binding of serum 1a to looped/cyclic peptides of protein M of SARS-CoV Urbani [1]: 0.7
Binding of serum 1b to linear peptides of protein M of SARS-CoV Urbani [1]: 0.8
Binding of serum 1b to looped/cyclic peptides of protein M of SARS-CoV Urbani [1]: 0.3
Binding of serum 2 to linear peptides of protein M of SARS-CoV Urbani [1]: 0.8
Binding of serum 2 to looped/cyclic peptides of protein M of SARS-CoV Urbani [1]: 0.8
Binding of serum 6 to linear peptides of protein M of SARS-CoV Urbani [1]: 0.4
Binding of serum 6 to looped/cyclic peptides of protein M of SARS-CoV Urbani [1]: 0.7
Binding of serum 37 to linear peptides of protein M of SARS-CoV Urbani [1]: 0.9
Binding of serum 37 to looped/cyclic peptides of protein M of SARS-CoV Urbani [1]: 0.9
Binding of serum 62 to linear peptides of protein M of SARS-CoV Urbani [1]: 0.9
Binding of serum 62 to looped/cyclic peptides of protein M of SARS-CoV Urbani [1]: 0.9
Binding of serum London to linear peptides of protein M of SARS-CoV Urbani [1]: 0.3
Binding of serum London to looped/cyclic peptides of protein M of SARS-CoV Urbani [1]: 0.2
Binding of serum SARS-green to linear peptides of protein M of SARS-CoV Urbani [1]: 0.3
Binding of serum SARS-green to looped/cyclic peptides of protein M of SARS-CoV Urbani [1]: 0.0
Binding of serum SARS-yellow to linear peptides of protein M of SARS-CoV Urbani [1]: 0.1
Binding of serum SARS-yellow to looped/cyclic peptides of protein M of SARS-CoV Urbani [1]: 0.7
Binding of Control Serum Blood-Bank to Looped peptides of the protein M of SARS-CoV Urbani [2]: 0.7
Binding of Control serum Blood-bank to linear peptides of the protein M of SARS-CoV Urbani [2]: 0.9
Binding of Control serum LUMC to linear peptides of the protein M of SARS-CoV Urbani [2]: 0.7
Binding of Control serum LUMC to looped peptides of the protein M of SARS-CoV Urbani [2]: 0.7
Rabbit serum linear peptides [3]: 0.6
Rabbit serum looped peptides [3]: 0.4

RVGTDSGFAAYNRYR
Binding of serum 1a to linear peptides of protein M of SARS-CoV Urbani [1]: 0.7
Binding of serum 1a to looped/cyclic peptides of protein M of SARS-CoV Urbani [1]: 0.8
Binding of serum 1b to linear peptides of protein M of SARS-CoV Urbani [1]: 0.1
Binding of serum 1b to looped/cyclic peptides of protein M of SARS-CoV Urbani [1]: 0.5
Binding of serum 2 to linear peptides of protein M of SARS-CoV Urbani [1]: 0.5
Binding of serum 2 to looped/cyclic peptides of protein M of SARS-CoV Urbani [1]: 0.6
Binding of serum 6 to linear peptides of protein M of SARS-CoV Urbani [1]: 0.5
Binding of serum 6 to looped/cyclic peptides of protein M of SARS-CoV Urbani [1]: 1.4
Binding of serum 37 to linear peptides of protein M of SARS-CoV Urbani [1]: 0.6
Binding of serum 37 to looped/cyclic peptides of protein M of SARS-CoV Urbani [1]: 0.7
Binding of serum 62 to linear peptides of protein M of SARS-CoV Urbani [1]: 0.2
Binding of serum 62 to looped/cyclic peptides of protein M of SARS-CoV Urbani [1]: 0.6
Binding of serum London to linear peptides of protein M of SARS-CoV Urbani [1]: 0.3
Binding of serum London to looped/cyclic peptides of protein M of SARS-CoV Urbani [1]: 0.4
Binding of serum SARS-green to linear peptides of protein M of SARS-CoV Urbani [1]: 0.5
Binding of serum SARS-green to looped/cyclic peptides of protein M of SARS-CoV Urbani [1]: 0.3
Binding of serum SARS-yellow to linear peptides of protein M of SARS-CoV Urbani [1]: 0.3
Binding of serum SARS-yellow to looped/cyclic peptides of protein M of SARS-CoV Urbani [1]: 0.5
Binding of Control Serum Blood-Bank to Looped peptides of the protein M of SARS-CoV Urbani [2]: 0.5
Binding of Control serum Blood-bank to linear peptides of the protein M of SARS-CoV Urbani [2]: 0.7
Binding of Control serum LUMC to linear peptides of the protein M of SARS-CoV Urbani [2]: 0.4
Binding of Control serum LUMC to looped peptides of the protein M of SARS-CoV Urbani [2]: 0.6
Rabbit serum linear peptides [3]: 0.0
Rabbit serum looped peptides [3]: 0.3
